Assay results: patent US7064112B1, “Pharmaceutical compositions comprising an adenosine receptor agonist or antagonist” (Can-Fite Biopharma Ltd., priority 1999, dated 2006)

What was measured:
[1] = Weight of nude mice treated with 5-FU and/or Cl-IB-MECA; assay type: in vivo, nude mice (BALB/C origin); conditions: FIG. 11; for weight of the mice as compared to control: day 7, 10 and 14, 5-FU 30 mg/kg i.p. five days, or Cl-IB-MECA 6 μg/kg oral every second day, alone
[2] = system: HCT-116 human colon cancer cells; experiment: HCT-116 human colon carcinoma tumor growth in nude mice; assay type: in vivo; conditions: for tumor growth (tumor size), combined therapy experiment: 5-FU 30 mg/kg i.p. 5 days, Cl-IB-MECA 5 μg/kg oral every other day, FIGS. 15 and 16
Experimental: Tumors were established by subcutaneous injection of 1×10^6 HCT-116 human colon cancer cells to nude mice (BALB/C origin) (Harlan, Jerusalem, Israel). […] Mice that were treated with the vehicle only (PBS). Each group consisted of 10 mice. Tumor growth rate was determined by measuring two orthogonal diameters of each tumor twice a week, and the tumor size was estimated according to the following formula: π/6[D1D2]. The results are depicted in FIG. 14. […] 1×10^6 HCT-116 cells were injected subcutaneously to nude mice. One day later, 5-FU (30 mg/kg body weight, in 0.2 ml PBS) was intraperitoneally injected and subsequently in 4 additional consecutive days. […] Mice that were treated either with the vehicle only (PBS) or with 5-FU served as control. Each group consisted of 10 mice. Tumor growth rate was determined by measuring two orthogonal diameters of each tumor twice a week, and the tumor size was estimated according to the following formula: π/6[D1D2].

[3] = system: Nb2-11C rat lymphoma cells; experiment: Nb2-11C lymphoma cell growth, cell count assay; assay type: cell-based; conditions: for growth inhibition of Nb2-11C lymphoma cells by receptor agonists: 0.01 μM agonist, 48 hours, FIG. 5A; for effect of receptor antagonist on the effect of adenosine on proliferation of Nb2-11C cells: 0.1 μM antagonist in combination with adenosine 25 μM, FIG. 5B
Experimental: Nb2-11C rat lymphoma cells (1.2×10^4 cells/ml) were incubated for 48 hours in 96 well microtiter plates with 1 ml RPMI medium containing 5% fetal bovine serum. Either 25 μM adenosine, 0.01 μM of an adenosine receptor agonists (CPA, an A1RAg; DPMA, an A2RAg or IB-MECA, an A3RAg) or 0.1 μM of an adenosine receptor antagonists (DPCPX, an A1RAn; DMPX, an A2RAn; or MRS-1220, an A3RAn) in combination with adenosine (25 μM) was added.
Cultures containing cells suspended in RPMI medium with 5% FBS served as controls for the above detailed experiment. Extent of cell proliferation was measured by a cell count assay.
Briefly, Nb2-11C lymphoma or bone marrow cells were incubated in the presence of either adenosine, or IB-MECA.

bone marrow cells = experiment: Bone marrow cell proliferation, [3H]-thymidine incorporation assay; assay type: cell-based, C57BL/6J or ICR mice; conditions: for reduction of the increase in bone marrow cell proliferation as compared to adenosine alone: antagonist in combination with adenosine
Experimental: Bone marrow cells derived from the femur of C57BL/6J mice were used. The cells were prepared as previously described.
For this purpose, bone marrow cells obtained from the femur of C57BL/6J or ICR mice were first disaggregated by passing through a 25 G needle. Then, the cells (3×10^5 cells/well, in 96 microtiter plates) were incubated with RPMI medium containing 10% fetal bovine serum (FBS) in the presence of adenosine (25 μM). Adenosine or agonists to the A1 and A3 adenosine receptors—CPA (an A1RAg, 0.01 μM), CCPA (an A1RAg, 0.01 μM), or IB-MECA (an A3RAg, 0.01 μM), were added to the bone marrow cultures in the absence of adenosine; an A1 adenosine receptor antagonist, DPCPX (0.1 μM), was added to a bone marrow culture in the presence of adenosine (25 μM).
Cultures containing cells suspended in RPMI medium and 5% FBS served as the control for the above detailed experiment.
[^3H]-Thymidine incorporation assay was used to evaluate the proliferation of the bone marrow cells. For this purpose, after 30 hours of incubation, each well was pulsed with 1 μCi [^3H]-Thymidine. After a total of 48 hours of incubation, the cells were harvested and the [^3H]-Thymidine uptake was determined in an LKB liquid scintillation counter (LKB, Piscataway, N.J., USA).
Cell proliferation was evaluated as described above.
The cumulative effect on the proliferation of bone marrow cells, when using a combination of an A1RAgm1 A3RAg, (CPA and IB-MECA) was evaluated. Cells, after being disaggregated, were incubated in the presence of either adenosine (25 μM), CPA (0.01 μM), IB-MECA (0.01 μM) or a combination of IB-MECA and CPA (each in a concentration of 0.01 μM) and further treated as described above.
In order to compare the effect of adenosine receptor antagonist on the proliferation of bone marrow cells, following the same methodology described above, cells were incubated with adenosine alone or in combination with either DMPX (an A2RAn), DPCPX (an A1RAn), MRS-1220 (an A3RAn) or with a combination of DPCPX and MRS-1220.
Cells pre-treated as described above, were incubated at different concentrations of IB-MECA (1 μM, 0.1 μM or 0.01 μM).
Bone marrow cells (3×10^6 cell/ml) were incubated in wells of 96 microtiter plates. […] Cell proliferation was measured by [^3H]-thymidine incorporation assay.
B-16 melanoma cells (5×10^5 cells/ml) and bone marrow cells (3×10^6 cells/ml) were incubated in wells of 96 microtiter plate. […] Cell proliferation was measured by the [^3H]-thymidine incorporation assay mentioned before.
Murine bone marrow cells were cultured as described above. […] The antagonist was added at a concentration of 10 nM.

B-16 melanoma cells = experiment: B-16 melanoma cell proliferation, [3H]-thymidine incorporation assay; assay type: cell-based, Murine; conditions: FIG. 18
Experimental: B-16 melanoma cells (5×10^5 cells/ml) and bone marrow cells (3×10^6 cells/ml) were incubated in wells of 96 microtiter plate. The culture consisted of RPMI medium supplemented with 10% FTS: […] Cell proliferation was measured by the [^3H]-thymidine incorporation assay mentioned before.

[4] = system: peripheral blood leukocytes and neutrophils; conditions: for total white blood cell count after cyclophosphamide: i.p. adenosine 25 μg/kg or IB-MECA 3 or 6 μg/kg at 48 and 72 hours, FIG. 10A
Experimental: A further experiment was conducted in order to evaluate the chemoprotective effect of A3RAg. Mice were treated with cyclophosphamide (50 mg/kg body weight in 0.3 ml PBS). After 48 and 72 hours from administration of the cytotoxic drug, the mice were injected i.p. with adenosine (25 μg/kg body weight) or with IB-MECA (3 or 6 μg/kg body weight in 0.2 ml PBS). The number of white blood cells (WBC) and neutrophils was tested.

[5] = system: white blood cells and bone marrow nucleated cells; experiment: Doxorubicin-induced myelotoxicity in ICR mice; assay type: in vivo; conditions: doxorubicin 10 mg/kg i.p., Cl-IB-MECA 6 μg/kg oral at 24, 48, 72 hours
Experimental: ICR mice were treated with doxorubicin (injection of 10 mg/kg i.p. in 0.5 ml PBS). […] At 72 hours, 96 hours, 120 hours and 144 hours, the mice were sacrificed and blood samples were withdrawn. In addition, bone marrow cells were aspirated from the femur of the mice and a cell count of nucleated cells from this aspirated preparation was made, following staining of the preparation with Coomassie Blue.

white blood cells (WBC) = conditions: CYP 50 mg/kg i.p.; blood 124 hours after chemotherapy; FIG. 13
Experimental: Each group consisted of 10 mice and the experiment was repeated twice.
The CYP was injected intraperitoneally in 0.2 ml of PBS which served as the carrier.
Anti-G-CSF antibodies were intravenously injected (in 0.2 ml PBS) 72 hours following the administration of the chemotherapeutic drugs.
Blood samples were withdrawn 124 hours following chemotherapy. White blood cells (WBC) counts were made in a Coulter counter and differential cell counts were carried on smear preparations stained with May-Grundvald-Giemsa solution.

Question: With `O=c1[nH]cc(F)c(=O)[nH]1` [5-FU, 5-fluoro-uracyl, reference compound] as the compound, how does the “weight of the mice as compared to control” value [1] read?
Answer: The value was “profound effect on the weight of the mice”.

Question: What about the “tumor growth (tumor size), combined therapy experiment” value [2] of the same compound?
Answer: The value was “marked inhibition of tumor growth”.

Question: With `OC[C@H]1O[C@@H](n2cnc3c(NC4CCCC4)ncnc32)[C@H](O)[C@@H]1O` [CPA, N-cyclopentyladenosine] as the compound, how does the “growth inhibition of Nb2-11C lymphoma cells by receptor agonists” value [3] read?
Answer: Its value is “No growth inhibition”.

Question: For `CNC(=O)[C@H]1O[C@@H](n2cnc3c(NCc4cccc(I)c4)nc(Cl)nc32)[C@H](O)[C@@H]1O` [Cl-IB-MECA], which “effect on proliferation of bone marrow cells” value (bone marrow cells; 1 or 10 nM, FIG. 20) is on record?
Answer: Its value is “dose dependent”.

Question: What about the “proliferation of bone marrow cells” value (bone marrow cells; Cl-IB-MECA 0.01 μM or 0.1 μM, FIG. 18) of the same compound?
Answer: Its value is “proliferation stimulation effect”.

Question: What about the “proliferation of B-16 melanoma cells” value (B-16 melanoma cells; Cl-IB-MECA 0.01 μM or 0.1 μM) of the same compound?
Answer: The value was “inhibitory effect”.

Question: And the “white blood cells and neutrophils after chemotherapy, experiment with Cl-IB-MECA” value ([4]; mouse, in vivo)?
Answer: The value was “chemoprotective activity”.

Question: And the 5-FU-induced weight loss ([1]; Cl-IB-MECA 6 μg/kg oral administered together with 5-FU 30 mg/kg i.p.)?
Answer: Its 5-FU-induced weight loss is “prevented some of this weight loss”.

Question: And the “weight of the mice as compared to control” value [1]?
Answer: Its value is “did essentially not give rise to any weight loss”.

Question: What about the “number of peripheral white blood cells after doxorubicin” value ([5]; FIG. 12A) of the same compound?
Answer: The value was “marked increase”.

Question: And the “number of bone marrow nucleated cells after doxorubicin” value ([5]; FIG. 12B)?
Answer: Its value is “marked increase”.

Question: What about the “tumor growth (tumor size), combined therapy experiment” value [2] of the same compound?
Answer: The value was “marked inhibition of tumor growth”.

Question: And the “tumor growth (tumor size)” value ([2]; Cl-IB-MECA 6 μg/kg oral every other day, FIG. 14)?
Answer: The value was “marked inhibition of tumor growth”.

Question: Which “proliferation of bone marrow cells, adenosine in combination with receptor antagonist” value (bone marrow cells; compared to adenosine alone, FIG. 3B) does the source give for `C#CCn1c(=O)c2c(ncn2C)n(C)c1=O` [DMPX, 3,7-dimethyl-1-propargyl-xantane, reference compound] here?
Answer: Its value is “increased proliferation of bone marrow cells which even exceeded that of adenosine alone”.

Question: And the “effect of receptor antagonist on the effect of adenosine on proliferation of Nb2-11C cells” value (from here on “effect of receptor antagonist”) [3]?
Answer: Its value is “minor, however still significant effect”.

Question: For `CCCn1c(=O)c2[nH]c(C3CCCC3)nc2n(CCC)c1=O` [DPCPX, 1,3-dipropyl-8-cyclopentylxanthine, reference compound], which “reduction of the increase in bone marrow cell proliferation as compared to adenosine alone” value (bone marrow cells; FIG. 3B) is on record?
Answer: The value was “about 50%”.

Question: And the “effect of receptor antagonist” value [3]?
Answer: Its value is “essentially no effect”.

Question: With `COc1cc(OC)cc(C(CNc2ncnc3c2ncn3[C@@H]2O[C@H](CO)[C@@H](O)[C@H]2O)c2ccccc2C)c1` (stereo partly drawn) [DPMA, N^6-[2-(3,5-dimethoxyphenyl)-2-(2-methylphenyl)-ethyl] adenosine] as the compound, how does the “growth inhibition of Nb2-11C lymphoma cells by receptor agonists” value [3] read?
Answer: The value was “lower growth inhibition”.

Question: What does the source list for `CNC(=O)[C@H]1O[C@@H](n2cnc3c(NCc4cccc(I)c4)ncnc32)[C@H](O)[C@@H]1O` [IB-MECA, 1-deoxy-1-{6-[({3-iodophenyl}methyl)amino]-9H-purine-9-yl}-N-methyl-β-D-ribofuranuronamide]?
Answer: effect on proliferation of bone marrow cells (bone marrow cells; 1 or 10 nM, FIG. 20): dose dependent; effect on proliferation of bone marrow cells (bone marrow cells; FIG. 7B): stimulating the proliferation of bone marrow cells; stimulation of bone marrow cell proliferation (bone marrow cells; IB-MECA 1 μM, 0.1 μM or 0.01 μM): stimulates proliferation of bone marrow in a dose dependent manner; growth inhibition of Nb2-11C lymphoma cells by receptor agonists [3]: markedly inhibited; effect on growth of tumor cells (Nb2-11C lymphoma) ([3]; FIG. 7A): inhibiting the growth of tumor cells; complete recovery of total white blood cell count after ([4]; cyclophosphamide 50 mg/kg, IB-MECA i.p. at 48 and 72 hours): 168 h; total white blood cell count after cyclophosphamide ([4]; cyclophosphamide 50 mg/kg): restored

Question: For `O=C(Cc1ccccc1)Nc1nc2ccc(Cl)cc2c2nc(-c3ccco3)nn12` [MRS-1220, 9-chloro-2-(2-furanyl)-5-[(phenylacetyl)amino] [1,2,4,]-triazolo[1,5-c]quinazoline], which “reduction of the increase in bone marrow cell proliferation as compared to adenosine alone” value (bone marrow cells; FIG. 3B) is on record?
Answer: Its value is “about 50%”.

Question: What about the “effect of receptor antagonist” value [3] of the same compound?
Answer: Its value is “substantially abolished”.

Question: And the “therapeutic effect of A3RAg (IB-MECA) when A3 receptor antagonist employed” value ([3]; FIGS. 7A–7B, tumor and normal cells)?
Answer: The value was “reversed”.

Question: For `CCCOC(=O)c1c(-c2ccccc2)nc(CC)c(C(=O)SCC)c1CCC` [MRS-1523, reference compound], which “proliferation of bone marrow cells in the presence of MRS-1523” value (bone marrow cells; with Cl-IB-MECA 0.01 μM or 0.1 μM, FIG. 18) is on record?
Answer: The value was “unchanged versus control”.

Question: And the “proliferation of B-16 melanoma cells in the presence of MRS-1523” value (B-16 melanoma cells; with Cl-IB-MECA 0.01 μM or 0.1 μM)?
Answer: Its value is “unchanged versus control”.

Question: Which “total white blood cell count after cyclophosphamide” value ([4]; cyclophosphamide 50 mg/kg) does the source give for `Nc1ncnc2c1ncn2[C@@H]1O[C@H](CO)[C@@H](O)[C@H]1O` [adenosine] here?
Answer: The value was “restored”.

Question: Which “number of peripheral blood leukocytes and neutrophils, cytotoxic drug only” value ([4]; cyclophosphamide 50 mg/kg only) does the source give for `O=P1(N(CCCl)CCCl)NCCCO1` (stereo not drawn) [cyclophosphamide, Cyclophosphamide, reference compound] here?
Answer: Its value is “decline in the number of peripheral blood leukocytes and neutrophils”.

Question: And the “number of peripheral blood WBC, cyclophosphamide only” value (white blood cells (WBC))?
Answer: Its value is “decline in the number of peripheral blood WBC”.
